Tests used:
Test in all cases: Cell viability assay (AlamarBlue, 72 h)
Assay type in all cases: cell-based, human
DU145 cells = tested on: DU145 cells
Procedure: (§1) All cell lines were obtained from the ATCC (Rockville, Md., USA), with the exception of SET-2 cells which were purchased from the German Collection of Microorganisms and Cell Cultures (DSMZ, Germany). Cells were maintained and cultured according to standard techniques at 37° C. in 5% (v/v) CO2 using culture medium recommended by the supplier.
(§2) Cells were grown in 96-well plates based on optimal growth rates determined empirically for each line. Twenty-four hours after plating, cells were dosed with the indicated compound or DMSO (0.3%) for 72 h. AlamarBlue (Invitrogen, Carlsbad, Calif., USA) was added (10% v/v) to the cells, and the plates were incubated for 3 h and subjected to fluorescence detection (Ex=545 nm, Em=600 nm) in a SpectraMax Plus 384 microplate reader (Molecular Devices, Sunnyvale, Calif., USA). Data are normalized to percent of control, with IC50 values based on a four-parameter logistic dose response curve (model 205) using XLfit version 5.1 from IDBS (Guildford, U.K.).

HEL92.1.7 cells = tested on: HEL92.1.7 cells
Procedure: as §1, §2

MV4-11 cells = tested on: MV4-11 cells
Procedure: as §1, §2

SET-2 cells = tested on: SET-2 cells
Procedure: as §1, §2

CC(C)c1cc(-c2nnc(O)n2-c2ccc3c(ccn3C)c2)c(O)cc1O [ganetespib, 3-(2,4-dihydroxy-5-isopropyl-phenyl)-4-(1-methyl-indol-5-yl)-5-hydroxy-[1,2,4] triazole]
induction of cell death (DU145 cells): potent inducer of cell death | fold more potent than 17-AAG, cell viability (HEL92.1.7 cells; 72 h): greater than 100 fold | IC50 (HEL92.1.7 cells; Homo sapiens, HEL 92.1.7, 72 h, Alamar blue, read-out: IC50, loss of cellular viability): 20 nM | sensitivity of cells in vitro (MV4-11 cells): highly sensitive | fold more potent than 17-AAG, cell viability (SET-2 cells): greater than 100 fold

— patent publication US20140045908A1, “HSP90 INHIBITORY COMPOUNDS IN TREATING JAK/STAT SIGNALING-MEDIATED CANCERS” (SYNTA PHARMACEUTICALS CORP., priority 2011, published 2014)
